According to patent US20260285853A1, “COMPOUNDS AND METHODS FOR MODULATING SPLICING” (REMIX THERAPEUTICS INC., priority 2023, published 2026):
Like-named read-outs stand apart in the source and are kept apart here.

Columns and labels:
Assay type in all cases: cell-based
HTT mRNA [1] = test: Splicing RT-qPCR assay (THP), Table 2A
MYB mRNA [2] = test: Splicing RT-qPCR assay (THP), Table 2A
HTT mRNA [3] = test: Gene panel canonical junction qPCR assay, decrease in CJ mRNA, Table 3
Procedure, shortened: (§1)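 Cells: A673 or K562; 24 h compound exposure, 37 °C, 5% CO2; 11-pt 3-fold series from 10 uM final; DMSO ≤0.25%. Lysate → cDNA → qPCR with junction-spanning primers/probe for CJ transcript. ΔCt vs housekeeper, ΔΔCt vs DMSO, 2^(−ΔΔCt), % response, 4PL → IC50.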

MYB mRNA [4] = test: as above
Procedure, shortened: as §1

[5] = system: SH-SY5Y (human neuroblastoma) cells; test: Cell viability, Cell Titer Glo 2.0 assay; settings: read-out: Viability SHSY5Y.3 GI50
Procedure, shortened: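 CellTiter-Glo 2.0 luminescence read-out after 72 h compound exposure (37 °C, 5% CO2); medium-only wells as blank. DMSO 0.1% final.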

[6] = Table 2A (THP), AJ mRNA increase, read-out: HTT AJ (increase in alternative junction mRNA, AC50)
[7] = Table 2A (THP), CJ mRNA decrease, read-out: HTT CJ (decrease in canonical junction mRNA, IC50)
[8] = Table 2A (THP), AJ mRNA increase, read-out: MYB AJ (increase in alternative junction mRNA, AC50)
[9] = Table 2A (THP), CJ mRNA decrease, read-out: MYB CJ (decrease in canonical junction mRNA, IC50)
[10] = decrease in canonical junction (CJ) mRNA, gene panel qPCR, Table 3
[11] = Table 2A, THP, HTT alternative junction (AJ) mRNA, read-out: HTT AJ (AC50, increase in alternative junction mRNA)
[12] = Table 2A, THP, HTT canonical junction (CJ) mRNA, read-out: HTT CJ (IC50, decrease in canonical junction mRNA)
[13] = Table 2A, THP, MYB alternative junction (AJ) mRNA, read-out: MYB AJ (AC50, increase in alternative junction mRNA)
[14] = Table 2A, THP, MYB canonical junction (CJ) mRNA, read-out: MYB CJ (IC50, decrease in canonical junction mRNA)
[15] = decrease in CJ mRNA levels, canonical junction qPCR, gene panel

SMILES	IC50 (HTT mRNA [1]; [7])	IC50 (MYB mRNA [2]; [9])	IC50 (HTT mRNA [3]; [10])	IC50 (MYB mRNA [4]; [10])	GI50 [5]	IC50 (HTT mRNA [1]; [12])	IC50 (MYB mRNA [2]; [14])	IC50 (HTT mRNA [3]; [15])	IC50 (MYB mRNA [4]; [15])	AC50 (HTT mRNA [1]; [6])	AC50 (MYB mRNA [2]; [8])	AC50 (HTT mRNA [1]; [11])	AC50 (MYB mRNA [2]; [13])
Cc1cn2cc(NC(=O)c3ccc(N4C[C@H](C)N[C@@H](C)C4)c4cn(C)nc34)nc2c(C)n1 [Compound 549]	> 10000 nM	1000 to 10000 nM	> 10000 nM	1000 to 10000 nM	> 10000 nM	–	–	–	–	> 10000 nM	1000 to 10000 nM	–	–
Cn1cc2cc(NC(=O)c3ccc(N4CCC(NC5CC5)CC4)c4cn(C)nc34)c(C(F)(F)F)cc2n1 [Compound 476, 4-[4-(cyclopropyl-amino)-1-piperidyl]-2-methyl-N-[2-methyl-6-(trifluoromethyl)-indazol-5-yl]indazole-7-carboxamide]	> 10000 nM	1000 to 10000 nM	> 10000 nM	1000 to 10000 nM	> 10000 nM	–	–	–	–	> 10000 nM	1000 to 10000 nM	–	–
C[C@H]1CN(c2ccc(C(=O)Nc3cc(F)c4nn(C)cc4c3)c3nc(OCCO)sc23)C[C@H](C)N1 [Compound 712, 7-[(3S,5S)-3,5-dimethylpiperazin-1-yl]-N-(7-fluoro-2-methyl-indazol-5-yl)-2-(2-hydroxyethoxy)-1,3-benzothiazole-4-carboxamide]	–	–	–	–	< 100 nM	< 100 nM	< 100 nM	< 100 nM	< 100 nM	–	–	< 100 nM	< 100 nM
COc1nc2c(C(=O)Nc3cc4cn(C)nc4nc3OC)ccc(N3C[C@H](C)N[C@@H](C)C3)c2s1 [Compound 809]	–	–	–	–	100 to 1000 nM	> 10000 nM	100 to 1000 nM	> 10000 nM	100 to 1000 nM	–	–	> 10000 nM	< 100 nM
CCNC1CCN(c2cc(F)c(C(=O)Nc3cc4c(C)nc(C)cn4c3)c3nn(C)cc23)CC1 [Compound 344, N-(1,3-dimethylpyrrolo[1,2-a]-pyrazin-7-yl)-4-[4-(ethylamino)-1-piperidyl]-6-fluoro-2-methyl-indazole-7-carboxamide]	> 10000 nM	100 to 1000 nM	> 10000 nM	100 to 1000 nM	1000 to 10000 nM	–	–	–	–	> 10000 nM	100 to 1000 nM	–	–
COc1nc2c(C(=O)Nc3cc(F)c4nn(C)cc4c3)ccc(N3CCN[C@H](C)C3)c2s1 [Compound 765]	–	–	–	–	100 to 1000 nM	100 to 1000 nM	< 100 nM	100 to 1000 nM	< 100 nM	–	–	100 to 1000 nM	< 100 nM
C=CCNC1CCN(c2ccc(C(=O)Nc3cc(CNC4(C)COC4)c4nn(C)cc4c3)c3nn(C)cc23)CC1 [Compound 835]	–	–	–	–	> 10000 nM	> 10000 nM	> 10000 nM	> 10000 nM	> 10000 nM	–	–	> 10000 nM	> 10000 nM
CNC1CCC(Oc2ccc(C(=O)Nc3cc4cn(C)nc4cc3OC)c3nn(C)cc23)CC1 (stereo not shown) [Compound 595]	1000 to 10000 nM	> 10000 nM	1000 to 10000 nM	> 10000 nM	1000 to 10000 nM	–	–	–	–	> 10000 nM	> 10000 nM	–	–
COc1cn2nc(C)cc2cc1C(=O)Nc1ccc(N2CCNCC2)c2cn(C)nc12 [Compound 488, 6-methoxy-2-methyl-N-(2-methyl-4-piperazin-1-yl-indazol-7-yl) pyrazolo[1,5-a]pyridine-5-carboxamide]	> 10000 nM	> 10000 nM	> 10000 nM	> 10000 nM	> 10000 nM	–	–	–	–	> 10000 nM	> 10000 nM	–	–
CCNC1CCN(c2ccc(C(=O)Nc3cc4cn(C)nc4cc3OC)c3nn(C)cc23)C(C)(C)C1 (stereo not shown) [Compound 737, 4-[4-(ethylamino)-2,2-dimethyl-1-piperidyl]-N-(6-methoxy-2-methyl-indazol-5-yl)-2-methyl-indazole-7-carboxamide]	–	–	–	–	1000 to 10000 nM	> 10000 nM	> 10000 nM	> 10000 nM	> 10000 nM	–	–	> 10000 nM	> 10000 nM
CNCC1CCCN(c2ccc(C(=O)Nc3cc4cn(C)nc4cc3OC)c3nn(C)cc23)C1 (stereo not shown) [Compound 545]	> 10000 nM	1000 to 10000 nM	> 10000 nM	1000 to 10000 nM	1000 to 10000 nM	–	–	–	–	> 10000 nM	1000 to 10000 nM	–	–
COc1nc2c(C(=O)Nc3cc(F)c4nn(C)cc4c3)ccc(N3CC4CCC(C3)N4)c2s1 [Compound 801, 7-(3,8-diazabicyclo[3.2.1]octan-3-yl)-N-(7-fluoro-2-methyl-indazol-5-yl)-2-methoxy-1,3-benzothiazole-4-carboxamide]	–	–	–	–	100 to 1000 nM	1000 to 10000 nM	< 100 nM	1000 to 10000 nM	< 100 nM	–	–	1000 to 10000 nM	< 100 nM
COc1cc2nn(C)cc2cc1NC(=O)c1ccc(N2CCC3(CCCN3)C2)c2cn(C)nc12 (stereo not shown) [Compound 512]	> 10000 nM	1000 to 10000 nM	> 10000 nM	1000 to 10000 nM	1000 to 10000 nM	–	–	–	–	> 10000 nM	100 to 1000 nM	–	–
COc1nc2c(N3C[C@H](C)N[C@@H](C)C3)ccc(C(=O)Nc3cc(F)c4nn(C)cc4c3)c2o1 [Compound 691, 4-[(3S,5S)-3,5-dimethylpiperazin-1-yl]-N-(7-fluoro-2-methyl-indazol-5-yl)-2-methoxy-1,3-benzoxazole-7-carboxamide]	–	–	–	–	1000 to 10000 nM	> 10000 nM	100 to 1000 nM	> 10000 nM	100 to 1000 nM	–	–	> 10000 nM	100 to 1000 nM

Continued, in another order:

IC50 (HTT mRNA [1]; [7])	IC50 (MYB mRNA [2]; [9])	IC50 (HTT mRNA [3]; [10])	IC50 (MYB mRNA [4]; [10])	GI50 [5]	IC50 (HTT mRNA [1]; [12])	IC50 (MYB mRNA [2]; [14])	IC50 (HTT mRNA [3]; [15])	IC50 (MYB mRNA [4]; [15])	SMILES	AC50 (HTT mRNA [1]; [6])	AC50 (MYB mRNA [2]; [8])	AC50 (HTT mRNA [1]; [11])	AC50 (MYB mRNA [2]; [13])
–	–	–	–	1000 to 10000 nM	1000 to 10000 nM	100 to 1000 nM	1000 to 10000 nM	100 to 1000 nM	COc1c(NC(=O)c2cc(F)c(N3CCC(NC4CC4)CC3)c3cn(C)nc23)cn2cc(C)nc2c1F [Compound 709]	–	–	1000 to 10000 nM	100 to 1000 nM
> 10000 nM	100 to 1000 nM	> 10000 nM	100 to 1000 nM	1000 to 10000 nM	–	–	–	–	COc1cn2nc(C)cc2cc1NC(=O)c1ccc(N2CCC(NC3CC3)CC2)c2cn(C)nc12 [Compound 475, 4-[4-(cyclopropylamino)-1-piperidyl]-N-(6-methoxy-2-methyl-pyrazolo[1,5-a]pyridin-5-yl)-2-methyl-indazole-7-carboxamide]	> 10000 nM	100 to 1000 nM	–	–
> 10000 nM	> 10000 nM	> 10000 nM	> 10000 nM	> 10000 nM	–	–	–	–	COc1cc2n[nH]cc2cc1NC(=O)c1c(F)cc(N2CCC(NC3CC3)CC2)c2cn(C)nc12 [Compound 449, 4-[4-(cyclopropylamino)-1-piperidyl]-6-fluoro-N-(6-methoxy-2H-indazol-5-yl)-2-methyl-indazole-7-carboxamide]	> 10000 nM	> 10000 nM	–	–
< 100 nM	< 100 nM	< 100 nM	< 100 nM	< 100 nM	–	–	–	–	Cc1cn2cc(NC(=O)c3c(F)cc(N4CCC(NC5CC5)CC4)c4cn(C)nc34)c(OC3CC3)c(F)c2n1 [Compound 382, N-[7-(cyclopropoxy)-8-fluoro-2-methyl-imidazo [1,2-a]-pyridin-6-yl]-4-[4-(cyclopropylamino)-1-piperidyl]-6-fluoro-2-methyl-indazole-7-carboxamide]	< 100 nM	< 100 nM	–	–
100 to 1000 nM	< 100 nM	100 to 1000 nM	< 100 nM	1000 to 10000 nM	–	–	–	–	COc1cc2nn(C)cc2cc1NC(=O)c1cnc(N2CCC(NC3CC3)CC2)c2cn(C)nc12 [Compound 434, 4-[4-(cyclopropylamino)-1-piperidyl]-N-(6-methoxy-2-methyl-indazol-5-yl)-2-methyl-pyrazolo[4,3-c]pyridine-7-carboxamide]	100 to 1000 nM	< 100 nM	–	–
100 to 1000 nM	100 to 1000 nM	100 to 1000 nM	100 to 1000 nM	100 to 1000 nM	–	–	–	–	COc1cc2nn(C)cc2cc1NC(=O)c1ccc(N2CCC(NC3CC3)CC2)c2c(F)n(C)nc12 [Compound 477]	100 to 1000 nM	100 to 1000 nM	–	–
> 10000 nM	1000 to 10000 nM	> 10000 nM	1000 to 10000 nM	> 10000 nM	–	–	–	–	Cc1nc(CN)cn2cc(NC(=O)c3c(F)cc(N4CCC(NC5CC5)CC4)c4cn(C)nc34)nc12 [Compound 401, N-[6-(aminomethyl)-8-methyl-imidazo[1,2-a]pyrazin-2-yl]-4-[4-(cyclopropylamino)-1-piperidyl]-6-fluoro-2-methyl-indazole-7-carboxamide]	> 10000 nM	1000 to 10000 nM	–	–
–	–	–	–	> 10000 nM	> 10000 nM	> 10000 nM	> 10000 nM	> 10000 nM	COc1cc2nn(C)cc2cc1NC(=O)c1c(Cl)cc(N2CCC(NC3CC3)CC2)n2cc(C)nc12 [Compound 627, 7-chloro-5-(4-(cyclopropylamino)piperidin-1-yl)-N-(6-methoxy-2-methyl-2H-indazol-5-yl)-2-methylimidazo[1,2-a]pyridine-8-carboxamide 2,2,2-trifluoroacetate]	–	–	> 10000 nM	> 10000 nM
